Source: ChEMBL document CHEMBL1201862, “PubChem BioAssay data set” (2004)
The source made the active and inactive calls.

What was measured:
[1] = molecular target: T1, Tyrosine-protein phosphatase non-receptor type 7 (Homo sapiens, UniProt P35236); assay: HePTP tyrosine phosphatase activity blockers – biochemical, absorbance, leukemia target, primary screen (AID 521); format: functional
T1 sequence (P35236 whole entry): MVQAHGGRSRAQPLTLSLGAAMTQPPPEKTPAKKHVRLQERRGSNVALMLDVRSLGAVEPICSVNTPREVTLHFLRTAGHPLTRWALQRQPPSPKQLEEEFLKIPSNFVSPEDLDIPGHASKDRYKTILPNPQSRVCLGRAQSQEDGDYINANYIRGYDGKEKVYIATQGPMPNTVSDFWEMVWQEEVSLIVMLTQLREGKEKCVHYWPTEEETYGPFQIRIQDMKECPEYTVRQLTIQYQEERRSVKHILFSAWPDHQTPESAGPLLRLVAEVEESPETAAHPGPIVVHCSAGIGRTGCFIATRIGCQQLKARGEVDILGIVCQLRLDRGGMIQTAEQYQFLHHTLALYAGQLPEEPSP

[2] = Luminescence Cell-Based Dose Confirmation HTS to Identify Inhibitors of Platelet Dense Granule Release. [Related pubchem assays: 1663 (Primary HTS), 1678 (Summary of Project)]; format: functional
[3] = molecular target: Luciferin 4-monooxygenase (Photinus pyralis, UniProt P08659); assay: inhibition of purified Photinus pyralis luciferase – biochemical, luminescence, dose response (AID 1891)
[4] = molecular target: T2, Voltage-gated N-type calcium channel alpha-1B subunit/Amyloid beta A4 precursor protein-binding family A member 1 (Homo sapiens, UniProt Q00975+Q02410); format: protein assay
[5] = M. tuberculosis H37Rv growth inhibitors, H37Rv strain (AID 1626); format: functional
[6] = molecular target: T2, Voltage-gated N-type calcium channel alpha-1B subunit/Amyloid beta A4 precursor protein-binding family A member 1; format: protein assay; remark: listed apart in the source
[7] = molecular target: Ubiquitin carboxyl-terminal hydrolase BAP1 (Homo sapiens, UniProt Q92560); assay: inhibition of BAP1 ubiquitin hydrolase activity – biochemical, dose response (AID 714); format: functional
Protein RecA = molecular target: T3, Protein RecA (Mycobacterium tuberculosis, UniProt P9WHJ3); assay: Fluorescence Cell-Free Homogeneous Dose Retest to Identify Inhibitors of RecA-Intein Splicing Activity. [Related pubchem assays (depositor defined):AID2097, AID2223, AID489010, AID492950]; format: functional
T3 sequence (P9WHJ3 whole entry): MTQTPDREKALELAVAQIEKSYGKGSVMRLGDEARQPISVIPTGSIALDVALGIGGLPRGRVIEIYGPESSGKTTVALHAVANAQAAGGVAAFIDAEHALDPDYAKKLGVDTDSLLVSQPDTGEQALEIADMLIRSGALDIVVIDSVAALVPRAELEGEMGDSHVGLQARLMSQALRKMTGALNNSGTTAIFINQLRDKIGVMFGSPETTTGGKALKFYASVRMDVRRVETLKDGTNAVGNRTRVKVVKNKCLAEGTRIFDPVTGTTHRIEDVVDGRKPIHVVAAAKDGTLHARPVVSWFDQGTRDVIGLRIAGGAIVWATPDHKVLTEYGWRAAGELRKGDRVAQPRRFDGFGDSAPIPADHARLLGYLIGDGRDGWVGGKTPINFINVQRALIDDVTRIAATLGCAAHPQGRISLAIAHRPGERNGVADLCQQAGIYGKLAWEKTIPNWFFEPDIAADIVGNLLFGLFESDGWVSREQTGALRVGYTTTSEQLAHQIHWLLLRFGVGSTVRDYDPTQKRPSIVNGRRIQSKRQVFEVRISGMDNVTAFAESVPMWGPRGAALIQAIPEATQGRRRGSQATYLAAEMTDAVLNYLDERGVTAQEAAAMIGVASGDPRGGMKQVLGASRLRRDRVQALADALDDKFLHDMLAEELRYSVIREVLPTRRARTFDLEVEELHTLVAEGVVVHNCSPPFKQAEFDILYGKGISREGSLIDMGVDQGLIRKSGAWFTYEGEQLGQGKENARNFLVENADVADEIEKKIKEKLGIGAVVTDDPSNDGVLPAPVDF

[8] = molecular target: T4, Replicative DNA helicase DnaB (Mycobacterium tuberculosis, UniProt P9WMR3); assay: DnaB intein splicing inhibitors, dose response, biochemical, cell-free fluorescence (AID 449749); format: functional
T4 sequence (P9WMR3 whole entry): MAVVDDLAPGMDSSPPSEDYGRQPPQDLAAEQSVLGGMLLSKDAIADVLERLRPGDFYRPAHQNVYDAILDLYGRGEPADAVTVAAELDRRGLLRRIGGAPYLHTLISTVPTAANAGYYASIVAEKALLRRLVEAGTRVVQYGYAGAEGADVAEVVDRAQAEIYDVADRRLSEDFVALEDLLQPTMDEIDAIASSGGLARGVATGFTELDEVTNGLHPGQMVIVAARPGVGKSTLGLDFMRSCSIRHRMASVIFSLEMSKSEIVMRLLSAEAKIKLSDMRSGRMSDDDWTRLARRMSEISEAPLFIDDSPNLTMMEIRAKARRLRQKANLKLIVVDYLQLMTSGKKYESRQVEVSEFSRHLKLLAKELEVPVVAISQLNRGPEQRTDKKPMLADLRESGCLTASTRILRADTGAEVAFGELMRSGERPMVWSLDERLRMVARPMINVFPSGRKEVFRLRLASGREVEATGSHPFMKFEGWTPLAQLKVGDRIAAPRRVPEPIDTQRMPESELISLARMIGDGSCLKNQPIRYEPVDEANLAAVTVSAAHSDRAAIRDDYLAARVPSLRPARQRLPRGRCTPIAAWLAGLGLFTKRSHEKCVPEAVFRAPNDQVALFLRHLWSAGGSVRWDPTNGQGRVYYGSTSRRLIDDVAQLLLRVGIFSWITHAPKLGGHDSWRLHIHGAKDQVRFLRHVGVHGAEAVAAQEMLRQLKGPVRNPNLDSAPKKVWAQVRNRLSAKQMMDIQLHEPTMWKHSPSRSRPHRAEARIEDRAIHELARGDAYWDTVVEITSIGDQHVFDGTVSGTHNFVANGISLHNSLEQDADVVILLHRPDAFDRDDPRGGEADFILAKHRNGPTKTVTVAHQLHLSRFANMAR

[9] = Luminescent dose response cell-based high throughput screening assay for inhibitors of the Janus kinase 2 mutant JAK2V617F. [Related pubchem assays: 1446 (Primary screen.), 1521 (Confirmation assay.), 1486 (Counter screen.)]; format: functional
[10] = molecular target: T5, Rac GTPase-activating protein 1 (Homo sapiens, UniProt Q9H0H5); assay: blockers of MgcRacGAP-driven Rac1 GTP hydrolysis – biochemical, ADP Hunter fluorescence, primary and confirmatory, confirmation (AID 624330); format: functional
T5 sequence (Q9H0H5 whole entry): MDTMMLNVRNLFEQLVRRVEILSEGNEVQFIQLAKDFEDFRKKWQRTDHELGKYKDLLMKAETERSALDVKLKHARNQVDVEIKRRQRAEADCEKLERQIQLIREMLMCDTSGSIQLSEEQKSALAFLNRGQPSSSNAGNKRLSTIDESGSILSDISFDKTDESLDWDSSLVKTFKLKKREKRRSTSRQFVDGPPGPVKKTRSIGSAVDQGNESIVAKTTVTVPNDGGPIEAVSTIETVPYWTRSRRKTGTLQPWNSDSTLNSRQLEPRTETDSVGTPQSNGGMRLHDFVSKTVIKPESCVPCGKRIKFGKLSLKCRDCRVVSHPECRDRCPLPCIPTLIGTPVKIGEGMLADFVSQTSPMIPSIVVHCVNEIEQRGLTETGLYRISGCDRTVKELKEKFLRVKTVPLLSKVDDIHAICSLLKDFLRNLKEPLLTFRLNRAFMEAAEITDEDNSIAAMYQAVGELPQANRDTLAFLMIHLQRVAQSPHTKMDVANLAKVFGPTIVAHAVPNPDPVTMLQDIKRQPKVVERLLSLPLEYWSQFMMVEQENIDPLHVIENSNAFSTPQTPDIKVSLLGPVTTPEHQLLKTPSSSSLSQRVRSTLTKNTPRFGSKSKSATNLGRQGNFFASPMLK

[11] = molecular target: Sphingosine 1-phosphate receptor 2 (Homo sapiens, UniProt O95136); assay: Dose Response Cell Based Assay for Agonists of the S1P2 Receptor. [Related pubchem assays: 729, 736, 843 ]; format: functional
Streptokinase A = molecular target: T6, Streptokinase A (Streptococcus pyogenes serotype M1, UniProt P10520); assay: viability-normalized secreted streptokinase activity reduction – plasminogen activation absorbance, OD405, dose response (AID 1914); format: functional, Streptococcus pyogenes M1 GAS;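 note: secreted streptokinase activity via plasminogen activation per viability signal from cell pellet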
T6 sequence (P10520 whole entry): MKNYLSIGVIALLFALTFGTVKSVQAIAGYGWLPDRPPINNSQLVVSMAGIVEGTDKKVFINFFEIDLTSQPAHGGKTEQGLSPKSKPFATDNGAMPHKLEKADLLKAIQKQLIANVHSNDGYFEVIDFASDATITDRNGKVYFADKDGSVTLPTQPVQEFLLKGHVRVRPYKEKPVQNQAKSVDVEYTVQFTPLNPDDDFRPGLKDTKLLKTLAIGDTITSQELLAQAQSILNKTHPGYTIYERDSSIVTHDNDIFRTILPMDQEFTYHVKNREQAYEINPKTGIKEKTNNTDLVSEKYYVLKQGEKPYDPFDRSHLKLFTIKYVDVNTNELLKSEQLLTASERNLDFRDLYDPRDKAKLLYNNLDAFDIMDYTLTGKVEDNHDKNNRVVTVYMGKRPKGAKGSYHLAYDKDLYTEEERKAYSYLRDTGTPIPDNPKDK

[12] = test system: Streptococcus sp. 'group A'; assay: Streptococcus pyogenes SK(-)GAS viability under kanamycin – luminescence, BacTiterGlo, confirmation, counter-screen for streptokinase expression inhibitor project, dose response (AID 1900); format: functional, organism-based
cells [13] = format: functional, cell-based
Galanin receptor type 2 = Galanin receptor type 2 (Homo sapiens, UniProt O43603); assay: Dose Response cell-based high-throughput screening assay to identify agonists of galanin receptor 2 (GALR2). [Related pubchem assays: 864 ]; format: functional
cells [14] = format: functional, cell-based; remark: listed apart in the source
INS1 = assay: INS-1E survival protection against cytokine death – cell-based, luminescence, retest, dose response (AID 449756); format: functional; conditions: Rattus norvegicus;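 note: cell death triggered by IL-1 beta plus TNF-alpha plus IFN-gamma mixture; protective hits raise ATP signal compared with cytokine alone wells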
[15] = NIH3T3 cell viability loss – ATP luminescence, mouse fibroblasts, counter-screen, dose response (AID 2010); format: functional, cell-based;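 note: cells exposed to compound for about 90 hours before reading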
[16] = Trypanosoma cruzi growth suppression in host cells – NIH3T3 host cells, beta-gal luminescence, confirmation (AID 2044); format: functional, cell-based;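 note: intracellular parasites grown in NIH/3T3 mouse fibroblasts as host cells; luminescent beta-galactosidase reporter signal from transgenic T. cruzi replicating inside host cells; inhibitors lower the luminescence signal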
Streptococcus = assay: GAS UMAA2166 growth inhibition – luminescence, BacTiterGlo, counter-screen for streptokinase expression inhibitor project, dose response (AID 1915); format: functional, organism-based;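 note: potency for reduction of bacterial viability or growth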
Cytochrome P450 2C19 = Cytochrome P450 2C19 (Homo sapiens, UniProt P33261); assay: qHTS Assay for Inhibitors and Substrates of Cytochrome P450 2C19. [Related pubchem assays: 410 ]; format: ADME; conditions: read-out: Potency
Sequence of Cytochrome P450 2C19 (P33261 whole entry): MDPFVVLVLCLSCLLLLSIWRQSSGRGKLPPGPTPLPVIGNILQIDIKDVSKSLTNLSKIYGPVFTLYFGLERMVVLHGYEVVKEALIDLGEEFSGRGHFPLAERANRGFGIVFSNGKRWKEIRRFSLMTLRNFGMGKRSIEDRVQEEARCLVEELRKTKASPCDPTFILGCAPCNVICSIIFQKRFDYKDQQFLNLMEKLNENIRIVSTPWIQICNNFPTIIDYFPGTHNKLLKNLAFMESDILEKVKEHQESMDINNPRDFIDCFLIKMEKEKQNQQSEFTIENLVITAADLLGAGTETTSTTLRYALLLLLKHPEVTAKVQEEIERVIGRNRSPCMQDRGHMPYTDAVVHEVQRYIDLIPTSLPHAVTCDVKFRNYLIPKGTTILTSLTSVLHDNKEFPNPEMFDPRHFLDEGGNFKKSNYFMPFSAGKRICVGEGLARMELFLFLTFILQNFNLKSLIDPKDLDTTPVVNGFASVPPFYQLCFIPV

T2 sequence (Q00975 whole entry): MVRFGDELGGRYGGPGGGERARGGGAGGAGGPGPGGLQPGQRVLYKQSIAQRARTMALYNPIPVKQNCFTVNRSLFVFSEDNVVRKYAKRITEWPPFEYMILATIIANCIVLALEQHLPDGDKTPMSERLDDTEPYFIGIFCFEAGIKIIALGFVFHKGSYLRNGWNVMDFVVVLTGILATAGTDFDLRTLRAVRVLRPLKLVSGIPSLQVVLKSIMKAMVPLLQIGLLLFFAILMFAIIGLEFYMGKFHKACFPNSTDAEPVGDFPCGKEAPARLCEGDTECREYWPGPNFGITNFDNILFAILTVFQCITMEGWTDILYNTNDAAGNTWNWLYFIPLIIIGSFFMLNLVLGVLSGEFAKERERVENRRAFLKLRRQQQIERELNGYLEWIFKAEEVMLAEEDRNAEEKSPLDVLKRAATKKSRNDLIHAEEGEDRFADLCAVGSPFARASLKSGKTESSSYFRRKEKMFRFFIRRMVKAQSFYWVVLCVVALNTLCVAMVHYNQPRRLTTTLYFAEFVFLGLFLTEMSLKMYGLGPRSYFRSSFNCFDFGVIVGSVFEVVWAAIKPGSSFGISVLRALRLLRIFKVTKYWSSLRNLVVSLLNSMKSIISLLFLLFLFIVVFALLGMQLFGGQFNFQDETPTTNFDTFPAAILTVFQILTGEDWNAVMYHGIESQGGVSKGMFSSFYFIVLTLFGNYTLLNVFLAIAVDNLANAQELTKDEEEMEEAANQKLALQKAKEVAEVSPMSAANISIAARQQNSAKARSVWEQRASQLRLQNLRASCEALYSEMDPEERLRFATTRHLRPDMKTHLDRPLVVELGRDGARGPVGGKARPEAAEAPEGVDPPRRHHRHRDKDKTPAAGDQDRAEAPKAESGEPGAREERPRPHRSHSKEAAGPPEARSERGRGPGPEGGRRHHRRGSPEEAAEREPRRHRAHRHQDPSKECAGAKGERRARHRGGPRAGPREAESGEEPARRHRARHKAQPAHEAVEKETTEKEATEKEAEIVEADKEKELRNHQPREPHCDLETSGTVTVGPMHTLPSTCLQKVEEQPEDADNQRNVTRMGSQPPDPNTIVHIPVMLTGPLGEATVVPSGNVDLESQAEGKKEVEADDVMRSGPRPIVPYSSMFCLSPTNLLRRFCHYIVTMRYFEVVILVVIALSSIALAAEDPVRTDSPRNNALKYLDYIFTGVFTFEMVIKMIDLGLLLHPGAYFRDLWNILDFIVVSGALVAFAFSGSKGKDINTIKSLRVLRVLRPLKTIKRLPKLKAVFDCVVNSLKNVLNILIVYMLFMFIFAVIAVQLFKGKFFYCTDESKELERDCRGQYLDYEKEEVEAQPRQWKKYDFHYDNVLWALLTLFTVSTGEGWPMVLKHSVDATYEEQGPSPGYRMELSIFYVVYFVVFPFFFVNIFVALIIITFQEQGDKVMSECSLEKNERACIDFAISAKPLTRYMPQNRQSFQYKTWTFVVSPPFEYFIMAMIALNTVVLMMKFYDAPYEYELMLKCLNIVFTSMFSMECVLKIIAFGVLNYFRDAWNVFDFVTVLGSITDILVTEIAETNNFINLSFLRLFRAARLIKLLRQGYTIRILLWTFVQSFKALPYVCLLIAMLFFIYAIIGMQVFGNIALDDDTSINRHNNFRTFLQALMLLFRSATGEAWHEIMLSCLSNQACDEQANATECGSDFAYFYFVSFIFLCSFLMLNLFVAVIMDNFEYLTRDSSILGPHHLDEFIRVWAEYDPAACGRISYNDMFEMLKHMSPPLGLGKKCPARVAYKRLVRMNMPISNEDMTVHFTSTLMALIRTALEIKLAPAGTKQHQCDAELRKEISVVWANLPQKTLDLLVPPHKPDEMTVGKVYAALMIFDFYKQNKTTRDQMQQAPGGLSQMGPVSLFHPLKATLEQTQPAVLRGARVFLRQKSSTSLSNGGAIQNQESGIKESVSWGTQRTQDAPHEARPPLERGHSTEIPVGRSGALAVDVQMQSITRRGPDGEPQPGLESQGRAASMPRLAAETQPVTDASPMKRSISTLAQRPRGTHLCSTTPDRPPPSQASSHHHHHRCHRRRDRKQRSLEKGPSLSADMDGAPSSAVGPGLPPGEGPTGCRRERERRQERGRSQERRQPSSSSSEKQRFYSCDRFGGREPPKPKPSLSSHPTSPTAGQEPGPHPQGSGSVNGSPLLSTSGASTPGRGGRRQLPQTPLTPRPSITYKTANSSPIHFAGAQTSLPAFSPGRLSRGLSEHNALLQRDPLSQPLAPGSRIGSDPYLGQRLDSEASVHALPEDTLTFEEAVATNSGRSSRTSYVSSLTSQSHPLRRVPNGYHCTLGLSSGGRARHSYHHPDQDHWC
T2 sequence (Q02410 whole entry): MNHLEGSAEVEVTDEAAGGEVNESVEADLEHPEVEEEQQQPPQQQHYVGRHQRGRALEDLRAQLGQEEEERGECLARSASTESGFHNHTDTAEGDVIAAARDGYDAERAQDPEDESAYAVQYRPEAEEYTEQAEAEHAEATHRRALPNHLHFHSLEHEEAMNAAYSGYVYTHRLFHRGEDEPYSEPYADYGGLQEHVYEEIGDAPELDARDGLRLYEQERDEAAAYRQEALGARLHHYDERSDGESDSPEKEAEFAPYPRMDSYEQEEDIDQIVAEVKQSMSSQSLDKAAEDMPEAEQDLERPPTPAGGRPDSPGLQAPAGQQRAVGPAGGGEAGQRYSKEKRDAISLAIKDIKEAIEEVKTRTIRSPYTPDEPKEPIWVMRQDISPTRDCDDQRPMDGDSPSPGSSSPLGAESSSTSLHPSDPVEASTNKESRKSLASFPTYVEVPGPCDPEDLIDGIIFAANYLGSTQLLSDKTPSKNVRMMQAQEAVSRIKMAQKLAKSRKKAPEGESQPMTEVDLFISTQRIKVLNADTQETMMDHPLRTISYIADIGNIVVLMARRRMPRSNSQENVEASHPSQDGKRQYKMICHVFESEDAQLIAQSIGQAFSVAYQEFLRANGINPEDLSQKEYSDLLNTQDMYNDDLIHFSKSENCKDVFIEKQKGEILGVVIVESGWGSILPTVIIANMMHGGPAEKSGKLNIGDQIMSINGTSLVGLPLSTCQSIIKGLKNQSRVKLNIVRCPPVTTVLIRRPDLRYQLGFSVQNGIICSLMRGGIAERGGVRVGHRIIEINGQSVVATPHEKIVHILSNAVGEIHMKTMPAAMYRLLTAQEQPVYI
Sequence of Galanin receptor type 2 (O43603 whole entry): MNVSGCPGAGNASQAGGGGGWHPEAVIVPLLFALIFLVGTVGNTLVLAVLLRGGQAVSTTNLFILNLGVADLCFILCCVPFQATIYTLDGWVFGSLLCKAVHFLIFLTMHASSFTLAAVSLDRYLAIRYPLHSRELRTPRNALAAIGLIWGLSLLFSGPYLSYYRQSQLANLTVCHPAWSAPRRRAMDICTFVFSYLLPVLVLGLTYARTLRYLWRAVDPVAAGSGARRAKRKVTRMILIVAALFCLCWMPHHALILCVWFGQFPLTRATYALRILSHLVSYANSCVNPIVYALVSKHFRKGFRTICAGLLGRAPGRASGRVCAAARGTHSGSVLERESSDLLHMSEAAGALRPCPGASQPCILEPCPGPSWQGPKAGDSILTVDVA
Sequence of Luciferin 4-monooxygenase (P08659 whole entry): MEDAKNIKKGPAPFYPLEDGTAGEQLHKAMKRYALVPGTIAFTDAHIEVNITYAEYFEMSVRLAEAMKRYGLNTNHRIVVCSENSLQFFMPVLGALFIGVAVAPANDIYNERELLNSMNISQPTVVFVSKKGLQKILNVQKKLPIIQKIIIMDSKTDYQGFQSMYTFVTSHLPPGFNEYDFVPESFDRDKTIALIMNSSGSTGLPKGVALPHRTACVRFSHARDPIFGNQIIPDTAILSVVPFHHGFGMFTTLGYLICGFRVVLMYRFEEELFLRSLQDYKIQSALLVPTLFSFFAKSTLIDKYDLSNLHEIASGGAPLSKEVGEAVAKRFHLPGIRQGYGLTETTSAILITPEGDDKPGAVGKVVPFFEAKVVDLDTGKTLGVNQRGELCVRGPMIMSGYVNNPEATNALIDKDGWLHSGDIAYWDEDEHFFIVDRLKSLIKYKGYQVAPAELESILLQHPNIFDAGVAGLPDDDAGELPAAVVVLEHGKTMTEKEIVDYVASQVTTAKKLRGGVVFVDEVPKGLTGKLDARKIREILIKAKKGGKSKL
Sequence of Sphingosine 1-phosphate receptor 2 (O95136 whole entry): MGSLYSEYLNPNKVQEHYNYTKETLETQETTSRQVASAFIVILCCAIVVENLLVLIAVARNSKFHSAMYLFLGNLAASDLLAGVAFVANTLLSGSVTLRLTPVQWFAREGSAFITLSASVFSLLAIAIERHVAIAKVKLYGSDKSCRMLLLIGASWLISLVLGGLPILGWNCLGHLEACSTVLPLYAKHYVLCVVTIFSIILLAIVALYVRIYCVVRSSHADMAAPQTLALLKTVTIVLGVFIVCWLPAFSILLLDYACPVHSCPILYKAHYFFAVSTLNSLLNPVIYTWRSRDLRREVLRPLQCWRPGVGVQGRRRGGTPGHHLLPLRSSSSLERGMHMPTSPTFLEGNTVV

Nc1nc(Nc2cccc3ccccc23)nc(C2CCCC2=O)n1 (configuration not stated)
IC50 [1]: > 100 µM (not active)

COc1ccc(C2CC(=O)N3CN(c4ccc(C)c(Cl)c4)CSC3=C2C#N)cc1OC (configuration not stated)
EC50 [2]: > 112 µM (not active) | EC50 [3]: > 112 µM (not active) | IC50 [4]: > 56.8 µM (not active) | IC50 [5]: > 100 µM (active) | IC50 [6]: > 50 µM (inactive) | IC50 [7]: > 50 µM (not active)

CC(C)(C)c1cc(NC(=O)CCl)n(-c2ccccc2)n1
EC50 (Protein RecA): 13.6 µM (active) | AC50 [8]: 65.1 µM (active) | IC50 [9]: 1.79 µM (active)

CCOCCCNc1nc(S)nc2cc(OC)c(OC)cc12
IC50 [10]: 83 µM (active) | EC50 [11]: > 50 µM (not active)

Cc1cc(C)c2nc(NNC(=O)c3ccc(S(=O)(=O)N4CCCC(C)C4)cc3)sc2c1 (configuration not stated)
EC50 (Streptokinase A): > 150 µM (not active) | EC50 [12]: 0.55 µM (active) | EC50 (cells [13]): 8.41 µM (active) | EC50 (Galanin receptor type 2): > 55.7 µM (not active) | EC50 (cells [14]): > 350 µM (not active) | AC50 (INS1): 1.81 µM (active) | EC50 [15]: 3.22 µM (active) | EC50 [16]: 1.79 µM (active) | EC50 (Streptococcus): 11.5 µM (active)

COc1ccc(CNc2ncnc3ccc(-c4ccccc4OC)cc23)c(OC)c1
AC50 (Cytochrome P450 2C19): 3.98 µM (inconclusive)
